According to article PMC8788362, “Rational design and synthesis of 2-(1H-indazol-6-yl)-1H-benzo[d]imidazole derivatives as inhibitors targeting FMS-like tyrosine kinase 3 (FLT3) and its mutants” (Journal of Enzyme Inhibition and Medicinal Chemistry, 2022):
Residue numbers refer to the chain shown, from its start. Read-outs that look alike come from different tables or passages of the source.

What was measured:
FLT3 (R595_E596 ins EY) = molecular target: T1, FLT3 (R595_E596 ins EY) (Homo sapiens, UniProt P36888, INS595EY); experiment: Reaction Biology Kinase HotSpot radiometric kinase assay; type: biochemical
T1 construct: purchased Reaction Biology Corp. (Kinase HotSpot service)
Text: (§1) (specific activity approx. 500 cpm/pmol, concentration as required).

[1] = molecular target: T2, FLT3 (Y591_V592 ins VDFREYEYD) (Homo sapiens, UniProt P36888, INS591VDFREYEYD); experiment: as above; type: biochemical
T2 construct: purchased Reaction Biology Corp. (Kinase HotSpot service)
Text: as §1

FLT3 (ITD)-W51 = molecular target: T3, FLT3 (ITD)-W51 (Homo sapiens, UniProt P36888, DUP595-601); experiment: as above; type: biochemical
T3 construct: purchased Reaction Biology Corp. (Kinase HotSpot service)
Text: as §1

FLT3 (F594_R595 ins R) = molecular target: T4, FLT3 (F594_R595 ins R) (Homo sapiens, UniProt P36888, INS594R); experiment: as above; type: biochemical
T4 construct: purchased Reaction Biology Corp. (Kinase HotSpot service)
Text: as §1

FLT3 (ITD)-NPOS = FLT3 (ITD)-NPOS (Homo sapiens, UniProt P36888, ITD); experiment: as above; type: biochemical
Text: as §1

c-Kit = molecular target: T5, c-Kit (Homo sapiens, UniProt P10721); experiment: Reaction Biology Kinase HotSpot kinase assay; type: biochemical
T5 construct: purchased Reaction Biology Corp. (Kinase HotSpot service)
T5 sequence (P10721 26-976): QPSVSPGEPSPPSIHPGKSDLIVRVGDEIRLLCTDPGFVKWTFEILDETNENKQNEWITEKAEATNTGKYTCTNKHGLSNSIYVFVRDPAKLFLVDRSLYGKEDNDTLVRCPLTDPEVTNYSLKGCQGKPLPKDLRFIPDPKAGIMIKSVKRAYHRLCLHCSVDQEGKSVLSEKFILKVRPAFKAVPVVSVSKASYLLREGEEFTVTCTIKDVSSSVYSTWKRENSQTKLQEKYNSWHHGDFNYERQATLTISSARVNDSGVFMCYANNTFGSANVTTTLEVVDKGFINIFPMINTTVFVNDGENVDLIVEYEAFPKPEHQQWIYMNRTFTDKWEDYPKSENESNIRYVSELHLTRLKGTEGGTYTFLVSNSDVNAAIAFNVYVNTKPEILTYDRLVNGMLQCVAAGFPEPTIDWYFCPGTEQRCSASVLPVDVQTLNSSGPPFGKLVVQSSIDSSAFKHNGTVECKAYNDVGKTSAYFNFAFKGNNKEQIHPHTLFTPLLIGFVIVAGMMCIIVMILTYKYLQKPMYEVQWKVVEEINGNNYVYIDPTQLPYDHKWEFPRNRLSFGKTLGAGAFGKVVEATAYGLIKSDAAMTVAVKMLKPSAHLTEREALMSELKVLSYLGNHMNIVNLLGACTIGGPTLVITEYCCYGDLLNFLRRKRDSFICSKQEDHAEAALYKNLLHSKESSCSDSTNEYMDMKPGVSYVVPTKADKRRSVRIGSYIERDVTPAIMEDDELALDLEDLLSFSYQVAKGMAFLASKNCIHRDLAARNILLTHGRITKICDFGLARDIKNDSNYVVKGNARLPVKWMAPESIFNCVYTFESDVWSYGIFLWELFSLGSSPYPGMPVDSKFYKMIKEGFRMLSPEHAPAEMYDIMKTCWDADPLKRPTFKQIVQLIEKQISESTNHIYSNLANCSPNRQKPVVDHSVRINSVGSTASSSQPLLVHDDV
Text: as §1

CAMKK1 = molecular target: T6, CAMKK1 (Homo sapiens, UniProt Q8N5S9); experiment: Reaction Biology Kinase HotSpot kinase assay; type: biochemical
T6 construct: purchased Reaction Biology Corp. (Kinase HotSpot service)
T6 sequence (Q8N5S9 whole entry): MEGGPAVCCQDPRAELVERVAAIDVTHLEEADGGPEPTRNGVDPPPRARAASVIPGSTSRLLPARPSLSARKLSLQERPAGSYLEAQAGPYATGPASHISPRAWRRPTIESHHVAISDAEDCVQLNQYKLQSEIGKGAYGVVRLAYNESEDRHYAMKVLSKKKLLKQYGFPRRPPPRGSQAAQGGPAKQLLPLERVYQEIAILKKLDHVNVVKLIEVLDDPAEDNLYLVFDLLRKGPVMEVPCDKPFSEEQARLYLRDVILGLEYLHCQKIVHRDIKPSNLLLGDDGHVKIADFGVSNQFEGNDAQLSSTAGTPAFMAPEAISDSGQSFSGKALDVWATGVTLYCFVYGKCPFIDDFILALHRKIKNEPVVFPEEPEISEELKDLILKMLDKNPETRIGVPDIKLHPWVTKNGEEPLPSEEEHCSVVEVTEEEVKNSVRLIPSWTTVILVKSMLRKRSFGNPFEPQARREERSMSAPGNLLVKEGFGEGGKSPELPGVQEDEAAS
Text: as §1

TRKC = molecular target: T7, TRKC (Homo sapiens, UniProt Q16288); experiment: Reaction Biology Kinase HotSpot kinase assay; type: biochemical
T7 construct: purchased Reaction Biology Corp. (Kinase HotSpot service)
T7 sequence (Q16288 32-839): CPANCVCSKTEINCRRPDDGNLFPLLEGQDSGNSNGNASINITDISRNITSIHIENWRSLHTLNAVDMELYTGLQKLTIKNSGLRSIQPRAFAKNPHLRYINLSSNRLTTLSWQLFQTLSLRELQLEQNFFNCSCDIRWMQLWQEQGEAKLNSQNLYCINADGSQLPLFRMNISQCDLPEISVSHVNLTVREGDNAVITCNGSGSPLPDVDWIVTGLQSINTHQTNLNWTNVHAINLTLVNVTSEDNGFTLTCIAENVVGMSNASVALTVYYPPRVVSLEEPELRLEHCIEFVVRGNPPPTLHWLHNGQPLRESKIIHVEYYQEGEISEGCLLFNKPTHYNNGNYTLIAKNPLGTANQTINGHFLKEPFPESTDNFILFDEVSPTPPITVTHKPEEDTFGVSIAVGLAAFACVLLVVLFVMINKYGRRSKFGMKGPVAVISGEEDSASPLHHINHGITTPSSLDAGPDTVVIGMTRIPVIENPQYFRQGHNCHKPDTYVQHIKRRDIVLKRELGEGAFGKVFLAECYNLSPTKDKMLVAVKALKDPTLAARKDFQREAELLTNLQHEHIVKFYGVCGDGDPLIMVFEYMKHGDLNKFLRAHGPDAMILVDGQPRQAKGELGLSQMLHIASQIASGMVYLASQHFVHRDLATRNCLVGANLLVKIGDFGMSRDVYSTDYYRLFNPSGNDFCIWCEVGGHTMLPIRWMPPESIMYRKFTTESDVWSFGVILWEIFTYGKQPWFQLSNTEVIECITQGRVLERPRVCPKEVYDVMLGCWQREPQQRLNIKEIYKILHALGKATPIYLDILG
Text: as §1

ABL1 = molecular target: T8, ABL1 (Homo sapiens, UniProt P00519); experiment: Reaction Biology Kinase HotSpot kinase assay; type: biochemical
T8 construct: purchased Reaction Biology Corp. (Kinase HotSpot service)
T8 sequence (P00519 whole entry): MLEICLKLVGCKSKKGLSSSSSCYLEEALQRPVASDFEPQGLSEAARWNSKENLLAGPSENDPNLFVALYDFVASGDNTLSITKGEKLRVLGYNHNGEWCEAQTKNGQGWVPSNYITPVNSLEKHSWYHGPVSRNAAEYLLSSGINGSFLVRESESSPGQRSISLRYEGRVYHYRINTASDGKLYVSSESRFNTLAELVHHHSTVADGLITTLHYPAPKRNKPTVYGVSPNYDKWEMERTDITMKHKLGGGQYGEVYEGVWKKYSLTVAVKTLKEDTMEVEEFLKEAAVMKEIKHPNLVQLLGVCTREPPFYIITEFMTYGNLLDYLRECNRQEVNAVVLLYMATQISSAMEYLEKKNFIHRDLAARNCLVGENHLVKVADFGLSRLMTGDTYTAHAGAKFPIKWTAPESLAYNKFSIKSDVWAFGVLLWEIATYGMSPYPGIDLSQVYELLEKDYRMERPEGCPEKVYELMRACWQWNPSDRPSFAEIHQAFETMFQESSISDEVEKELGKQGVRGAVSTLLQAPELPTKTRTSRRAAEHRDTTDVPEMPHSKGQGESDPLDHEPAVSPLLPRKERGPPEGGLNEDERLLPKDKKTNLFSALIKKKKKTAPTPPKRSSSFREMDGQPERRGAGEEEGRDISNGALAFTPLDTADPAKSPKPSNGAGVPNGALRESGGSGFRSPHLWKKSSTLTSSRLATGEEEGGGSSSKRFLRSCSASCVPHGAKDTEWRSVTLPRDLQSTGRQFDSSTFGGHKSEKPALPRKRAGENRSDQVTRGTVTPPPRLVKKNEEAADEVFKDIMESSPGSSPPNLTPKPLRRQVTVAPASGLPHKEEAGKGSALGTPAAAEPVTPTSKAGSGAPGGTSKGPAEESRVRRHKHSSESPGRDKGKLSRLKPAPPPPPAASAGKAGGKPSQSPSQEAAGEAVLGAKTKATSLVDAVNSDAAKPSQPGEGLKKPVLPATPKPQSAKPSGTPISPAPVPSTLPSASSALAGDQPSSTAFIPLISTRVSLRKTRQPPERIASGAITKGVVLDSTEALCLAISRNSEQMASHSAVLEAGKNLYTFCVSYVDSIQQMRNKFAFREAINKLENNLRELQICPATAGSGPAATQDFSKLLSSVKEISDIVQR
Text: as §1

ERK1 = molecular target: T9, ERK1 (Homo sapiens, UniProt P27361); experiment: Kinase HotSpot kinase profiling; type: biochemical; details: read-out: % Inhibition ERK1
T9 construct: purchased Reaction Biology Corp. (Kinase HotSpot service)
T9 sequence (P27361 whole entry): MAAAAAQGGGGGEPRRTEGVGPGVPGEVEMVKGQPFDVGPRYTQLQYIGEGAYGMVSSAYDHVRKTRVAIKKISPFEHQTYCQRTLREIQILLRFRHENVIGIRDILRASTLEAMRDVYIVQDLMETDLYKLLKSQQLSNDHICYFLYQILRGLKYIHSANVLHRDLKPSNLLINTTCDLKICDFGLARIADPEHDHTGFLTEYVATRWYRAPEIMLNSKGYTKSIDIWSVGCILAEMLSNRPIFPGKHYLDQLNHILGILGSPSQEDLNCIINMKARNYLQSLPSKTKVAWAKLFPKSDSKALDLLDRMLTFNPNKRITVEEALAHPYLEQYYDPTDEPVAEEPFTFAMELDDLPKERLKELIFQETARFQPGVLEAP
Text: as §1

BRAF (V599E) = molecular target: T10, BRAF (V599E) (Homo sapiens, UniProt P15056, V600E); experiment: Kinase HotSpot kinase profiling; type: biochemical
T10 construct: purchased Reaction Biology Corp. (Kinase HotSpot service)
Text: as §1

BTK = molecular target: T11, BTK (Homo sapiens, UniProt Q06187); experiment: Kinase HotSpot kinase profiling; type: biochemical; details: read-out: % Inhibition BTK
T11 construct: purchased Reaction Biology Corp. (Kinase HotSpot service)
T11 sequence (Q06187 whole entry): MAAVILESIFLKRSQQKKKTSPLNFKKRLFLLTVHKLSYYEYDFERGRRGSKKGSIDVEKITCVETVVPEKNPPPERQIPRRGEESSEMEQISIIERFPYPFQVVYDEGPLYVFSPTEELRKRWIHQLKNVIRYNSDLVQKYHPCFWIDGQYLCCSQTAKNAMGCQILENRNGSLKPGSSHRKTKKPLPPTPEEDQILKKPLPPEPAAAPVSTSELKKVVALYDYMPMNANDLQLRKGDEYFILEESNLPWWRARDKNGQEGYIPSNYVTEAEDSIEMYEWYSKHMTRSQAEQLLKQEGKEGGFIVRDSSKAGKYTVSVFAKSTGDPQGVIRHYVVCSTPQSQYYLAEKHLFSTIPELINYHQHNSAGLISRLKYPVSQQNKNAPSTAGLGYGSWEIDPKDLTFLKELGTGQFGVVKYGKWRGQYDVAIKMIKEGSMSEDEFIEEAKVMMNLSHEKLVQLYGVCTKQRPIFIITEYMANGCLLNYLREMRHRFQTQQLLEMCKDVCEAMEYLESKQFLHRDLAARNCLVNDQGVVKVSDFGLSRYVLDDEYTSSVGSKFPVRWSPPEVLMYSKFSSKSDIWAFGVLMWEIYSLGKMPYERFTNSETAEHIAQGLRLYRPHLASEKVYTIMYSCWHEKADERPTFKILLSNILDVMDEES
Text: as §1

c-MER = molecular target: T12, c-MER (Homo sapiens, UniProt Q12866); experiment: Kinase HotSpot kinase profiling; type: biochemical; details: read-out: % Inhibition c-MER
T12 construct: purchased Reaction Biology Corp. (Kinase HotSpot service)
Text: as §1

FLT3-ITD = FLT3-ITD (Homo sapiens, UniProt P36888, ITD); experiment: Kinase HotSpot kinase profiling; type: biochemical
Text: as §1

AXL (R499C) = molecular target: T13, AXL (R499C) (Homo sapiens, UniProt P30530, R499C); experiment: Kinase HotSpot kinase profiling; type: biochemical; details: read-out: % Inhibition AXL (R499C)
T13 construct: purchased Reaction Biology Corp. (Kinase HotSpot service)
Text: as §1

AKT1 = molecular target: T14, AKT1 (Homo sapiens, UniProt P31749); experiment: Kinase HotSpot kinase profiling; type: biochemical; details: read-out: % Inhibition AKT1
T14 construct: purchased Reaction Biology Corp. (Kinase HotSpot service)
Text: as §1

ALK = molecular target: T15, ALK (Homo sapiens, UniProt Q9UM73); experiment: Kinase HotSpot kinase profiling; type: biochemical; details: read-out: % Inhibition ALK
T15 construct: purchased Reaction Biology Corp. (Kinase HotSpot service)
Text: as §1

c-MET = molecular target: T16, c-MET (Homo sapiens, UniProt P08581); experiment: Kinase HotSpot kinase profiling; type: biochemical; details: read-out: % Inhibition c-MET
T16 construct: purchased Reaction Biology Corp. (Kinase HotSpot service)
Text: as §1

FYN = molecular target: T17, FYN (Homo sapiens, UniProt P06241); experiment: Kinase HotSpot kinase profiling; type: biochemical
T17 construct: purchased Reaction Biology Corp. (Kinase HotSpot service)
Text: as §1

FMS = molecular target: T18, FMS (Homo sapiens, UniProt P07333); experiment: Kinase HotSpot kinase profiling; type: biochemical; details: read-out: % Inhibition FMS
T18 construct: purchased Reaction Biology Corp. (Kinase HotSpot service)
Text: as §1

EGFR = molecular target: T19, EGFR (Homo sapiens, UniProt P00533); experiment: Kinase HotSpot kinase profiling; type: biochemical; details: read-out: % Inhibition EGFR
T19 construct: purchased Reaction Biology Corp. (Kinase HotSpot service)
Text: as §1

c-Src = molecular target: T20, c-Src (Homo sapiens, UniProt P12931); experiment: Kinase HotSpot kinase profiling; type: biochemical; details: read-out: % Inhibition c-Src
T20 construct: purchased Reaction Biology Corp. (Kinase HotSpot service)
T20 sequence (P12931 whole entry): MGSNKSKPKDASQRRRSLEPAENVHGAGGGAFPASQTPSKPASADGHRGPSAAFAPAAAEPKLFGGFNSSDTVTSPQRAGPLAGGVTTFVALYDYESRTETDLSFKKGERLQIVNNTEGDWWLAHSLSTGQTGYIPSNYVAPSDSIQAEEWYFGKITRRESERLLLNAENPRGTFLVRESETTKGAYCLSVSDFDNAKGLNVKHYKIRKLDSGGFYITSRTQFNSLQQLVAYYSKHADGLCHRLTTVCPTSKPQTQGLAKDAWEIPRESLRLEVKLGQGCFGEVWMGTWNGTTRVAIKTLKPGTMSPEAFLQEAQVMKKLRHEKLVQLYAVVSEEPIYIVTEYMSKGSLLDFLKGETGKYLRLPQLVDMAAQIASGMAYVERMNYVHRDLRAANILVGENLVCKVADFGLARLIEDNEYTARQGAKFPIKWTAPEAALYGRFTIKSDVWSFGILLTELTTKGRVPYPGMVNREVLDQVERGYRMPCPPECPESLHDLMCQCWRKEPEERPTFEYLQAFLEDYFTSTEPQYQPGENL
Text: as §1

AXL = molecular target: T21, AXL (Homo sapiens, UniProt P30530); experiment: Kinase HotSpot kinase profiling; type: biochemical; details: read-out: % Inhibition AXL
T21 construct: purchased Reaction Biology Corp. (Kinase HotSpot service)
Text: as §1

FGFR3 = molecular target: T22, FGFR3 (Homo sapiens, UniProt P22607); experiment: Kinase HotSpot kinase profiling; type: biochemical; details: read-out: % Inhibition FGFR3
T22 construct: purchased Reaction Biology Corp. (Kinase HotSpot service)
Text: as §1

Aurora A = molecular target: T23, Aurora A (Homo sapiens, UniProt O14965); experiment: Kinase HotSpot kinase profiling; type: biochemical; details: read-out: % Inhibition Aurora A
T23 construct: purchased Reaction Biology Corp. (Kinase HotSpot service)
Text: as §1

FLT3 (D835Y) = molecular target: T24, FLT3 (D835Y) (Homo sapiens, UniProt P36888, D835Y); experiment: Reaction Biology Kinase HotSpot radiometric kinase assay; type: biochemical
T24 construct: purchased Reaction Biology Corp. (Kinase HotSpot service)
T24 sequence (P36888 27-993 D835Y): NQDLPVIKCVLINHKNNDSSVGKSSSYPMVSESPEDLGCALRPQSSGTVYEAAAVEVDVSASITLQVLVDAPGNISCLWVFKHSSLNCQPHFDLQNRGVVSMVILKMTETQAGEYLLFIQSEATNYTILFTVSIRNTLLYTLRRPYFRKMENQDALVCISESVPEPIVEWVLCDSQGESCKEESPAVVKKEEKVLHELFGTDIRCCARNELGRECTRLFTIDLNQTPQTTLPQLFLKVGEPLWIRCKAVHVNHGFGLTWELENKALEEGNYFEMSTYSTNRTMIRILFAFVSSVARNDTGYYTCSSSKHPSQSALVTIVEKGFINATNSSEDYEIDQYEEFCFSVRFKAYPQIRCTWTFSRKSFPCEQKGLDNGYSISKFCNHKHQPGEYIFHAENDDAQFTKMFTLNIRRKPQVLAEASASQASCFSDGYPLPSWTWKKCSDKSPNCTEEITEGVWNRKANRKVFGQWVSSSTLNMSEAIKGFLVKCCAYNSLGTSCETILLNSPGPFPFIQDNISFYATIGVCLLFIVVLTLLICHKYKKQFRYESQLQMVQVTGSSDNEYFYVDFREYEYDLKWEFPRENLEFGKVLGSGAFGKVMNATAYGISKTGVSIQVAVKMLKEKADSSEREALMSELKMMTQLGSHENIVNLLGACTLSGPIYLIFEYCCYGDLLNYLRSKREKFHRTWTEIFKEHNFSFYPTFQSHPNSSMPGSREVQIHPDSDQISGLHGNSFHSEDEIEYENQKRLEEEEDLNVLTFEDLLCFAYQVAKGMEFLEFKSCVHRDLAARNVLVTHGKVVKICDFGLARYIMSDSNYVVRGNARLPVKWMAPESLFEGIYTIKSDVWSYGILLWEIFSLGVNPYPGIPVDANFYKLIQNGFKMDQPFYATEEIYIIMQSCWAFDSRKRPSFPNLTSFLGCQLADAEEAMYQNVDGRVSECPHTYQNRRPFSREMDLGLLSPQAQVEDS
Text: as §1

FLT3 wild type = molecular target: T25, FLT3 wild type (Homo sapiens, UniProt P36888); experiment: as above; type: biochemical; details: ATP 10 µM; read-out: FLT3 IC50
T25 construct: purchased Reaction Biology Corp. (Kinase HotSpot service)
T25 sequence (P36888 27-993): T24 sequence (P36888 27-993 D835Y) with Y809D
Text: as §1

CCN1CCN(Cc2cc(C(=O)Nc3ccc4[nH]c(-c5ccc6cn[nH]c6c5)nc4c3)cc(C(F)(F)F)c2)CC1 [8r, N-(2-(1H-Indazol-6-yl)-1H-benzo[d]imidazol-5-yl)-3-((4-ethylpiperazin-1-yl)methyl)-5-(trifluoromethyl)benzamide]
IC50 (FLT3 (R595_E596 ins EY)): 0.0248 µM
inhibition at 1 µM (FLT3 (R595_E596 ins EY); read-out: % Inhibition FLT3 (R595_E596insEY)): 93.9%
IC50 [1]: 0.0495 µM
inhibition at 1 µM ([1]; read-out: % Inhibition FLT3 (Y591_V592insVDFREYEYD)): 90.9%
IC50 (FLT3 (ITD)-W51): 0.0228 µM
inhibition at 1 µM (FLT3 (ITD)-W51; read-out: % Inhibition FLT3 (ITD)-W51): 93.9%
IC50 (FLT3 (F594_R595 ins R)): 0.0373 µM
inhibition at 1 µM (FLT3 (F594_R595 ins R); read-out: % Inhibition FLT3 (F594_R595insR)): 92%
IC50 (FLT3 (ITD)-NPOS): 0.0415 µM
inhibition at 1 µM (FLT3 (ITD)-NPOS): 88%
IC50 (c-Kit): 4.57 µM
inhibition at 1 µM (c-Kit; read-out: % Inhibition c-Kit): 19%
IC50 (CAMKK1): 0.395 µM
inhibition at 1 µM (CAMKK1; read-out: % Inhibition CAMKK1): > 20%
inhibition at 1 µM (CAMKK1; read-out: % Inhibition CAMKK1, 8r at 1 µM single dose): 32.5%
IC50 (TRKC): 1.52 µM
inhibition at 1 µM (TRKC): > 20%
IC50 (ABL1): 3.09 µM
inhibition at 1 µM (ABL1; read-out: % Inhibition ABL1): 18.4%
inhibition at 1 µM (ERK1): 0%
inhibition at 1 µM (BRAF (V599E)): 1%
inhibition at 1 µM (BTK): 17.5%
inhibition at 1 µM (c-MER): 7.3%
inhibition at 1 µM (FLT3-ITD): 88%
inhibition at 1 µM (AXL (R499C)): 6.64%
inhibition at 1 µM (AKT1): 3.09%
inhibition at 1 µM (ALK): 7.5%
inhibition at 1 µM (c-MET): 6.53%
inhibition at 1 µM (FYN): 18%
inhibition at 1 µM (FMS): 0.531%
inhibition at 1 µM (EGFR): 0.274%
inhibition at 1 µM (c-Src): 1.94%
inhibition at 1 µM (AXL): 1.88%
inhibition at 1 µM (FGFR3): 0%
inhibition at 1 µM (Aurora A): 7.47%
melting point: 265 to 267 °C

O=C(Nc1ccc2[nH]c(-c3ccc4cn[nH]c4c3)nc2c1)c1cnn(-c2ccccc2)c1C(F)(F)F [8g, N-(2-(1H-Indazol-6-yl)-1H-benzo[d]imidazol-5-yl)-1-phenyl-5-(trifluoromethyl)-1H-pyrazole-4-carboxamide]
IC50 (FLT3 (D835Y)): 0.063 µM
IC50 (FLT3 wild type): 1.1 µM
melting point: 258 to 260 °C

O=C(Nc1ccc(Cl)c(Cl)c1)Nc1ccc2[nH]c(-c3ccc4cn[nH]c4c3)nc2c1 [8m, 1–(2-(1H-Indazol-6-yl)-1H-benzo[d]imidazol-5-yl)-3–(3,4-dichlorophenyl)urea]
IC50 (FLT3 (D835Y)): 1.01 µM
IC50 (FLT3 wild type): 3.58 µM
melting point: 144 to 146 °C

COc1ccc(/C=C/C(=O)Nc2ccc3[nH]c(-c4ccc5cn[nH]c5c4)nc3c2)cc1 [8k, (E)-N-(2-(1H-Indazol-6-yl)-1H-benzo[d]imidazol-5-yl)-3–(4-methoxyphenyl)acrylamide]
IC50 (FLT3 (D835Y)): 0.191 µM
IC50 (FLT3 wild type): 0.761 µM
melting point: 206 to 208 °C

O=C(Nc1ccc2[nH]c(-c3ccc4cn[nH]c4c3)nc2c1)c1cc(CN2CCN(C3CC3)CC2)cc(C(F)(F)F)c1 [8q, N-(2-(1H-Indazol-6-yl)-1H-benzo[d]imidazol-5-yl)-3-((4-cyclopropylpiperazin-1-yl)methyl)-5-(trifluoromethyl)benzamide]
IC50 (FLT3 (D835Y)): 0.174 µM
IC50 (FLT3 wild type): 0.525 µM
melting point: 150 to 152 °C

Cc1cn(-c2cc(C(=O)Nc3ccc4[nH]c(-c5ccc6cn[nH]c6c5)nc4c3)cc(C(F)(F)F)c2)cn1 [8b, N-(2-(1H-Indazol-6-yl)-1H-benzo[d]imidazol-5-yl)-3–(4-methyl-1H-imidazol-1-yl)-5-(trifluoromethyl)benzamide]
IC50 (FLT3 (D835Y)): 0.11 µM
IC50 (FLT3 wild type): 0.639 µM
melting point: 239 to 241 °C

CCN1CCN(Cc2cc(C(=O)Nc3ccc4[nH]c(-c5ccc6cn[nH]c6c5)nc4c3)cc(C(F)(F)F)c2)CC1(C)C [8y, N-(2-(1H-Indazol-6-yl)-1H-benzo[d]imidazol-5-yl)-3-((4-ethyl-3,3-dimethylpiperazin-1-yl)methyl)-5-(trifluoromethyl)benzamide]
IC50 (FLT3 (D835Y)): 0.042 µM
IC50 (FLT3 wild type): 0.145 µM
melting point: 255 to 257 °C
